Laboratory results from the OPERA property sets (Mansouri et al. 2018).

Work on `CC(C)OC(=O)CS(=O)(=O)c1ccc(Cl)cc1[N+](=O)[O-]` yielded a logP of 2.45.
Compound `COC(=O)CS(=O)c1ccc(Cl)cc1[N+](=O)[O-]` (configuration not stated) has a logP of 1.29.
Work on `CC(C)OC(=O)CSc1ccc([N+](=O)[O-])cc1[N+](=O)[O-]` yielded a logP of 2.81.
`CC(C)OC(=O)CSc1ccc([N+](=O)[O-])cc1` showed a logP of 2.79.
`CC(C)OC(=O)CS(=O)c1ccc(Cl)cc1[N+](=O)[O-]` (configuration not stated) gave a logP of 2.22.
For `COC(=O)CS(=O)(=O)c1ccc(Cl)cc1[N+](=O)[O-]`, the logP was 1.3.
Work on `COC(=O)CSc1ccc([N+](=O)[O-])cc1[N+](=O)[O-]` yielded a logP of 2.05.
In the case of `CC(C)OC(=O)CSc1ccccc1[N+](=O)[O-]`, the logP is reported as 2.76.
`COC(=O)CS(=O)c1ccc([N+](=O)[O-])cc1Cl` (configuration not stated) gave a logP of 1.35.
With `CC(C)OC(=O)CS(=O)c1ccc([N+](=O)[O-])cc1[N+](=O)[O-]` (configuration not stated) the logP was 1.61.
For `CC(C)OC(=O)CS(=O)c1ccc([N+](=O)[O-])cc1Cl` (configuration not stated), the logP was 2.01.
With `COC(=O)CSc1ccccc1[N+](=O)[O-]` the logP was 1.88.
With `CC(C)OC(=O)CS(=O)c1ccccc1[N+](=O)[O-]` (configuration not stated) the logP was 1.59.
`CC(C)OC(=O)CSc1ccc([N+](=O)[O-])cc1Cl` gave a logP of 3.2.
With `CC(C)OC(=O)CS(=O)(=O)c1ccc([N+](=O)[O-])cc1` the logP was 1.8.
Work on `CC(C)OC(=O)CSc1ccc(Cl)cc1[N+](=O)[O-]` yielded a logP of 3.
`COC(=O)CS(=O)c1ccccc1[N+](=O)[O-]` (configuration not stated) gave a logP of 0.74.
In the case of `COC(=O)CS(=O)(=O)c1ccccc1[N+](=O)[O-]`, the logP is reported as 0.78.
Work on `COC(=O)CS(=O)c1ccc([N+](=O)[O-])cc1` (configuration not stated) yielded a logP of 0.8.
For `CC(C)OC(=O)CS(=O)(=O)c1ccccc1[N+](=O)[O-]`, the logP was 1.72.
Compound `COC(=O)CS(=O)(=O)c1ccc([N+](=O)[O-])cc1` has a logP of 0.78.
Compound `COC(=O)CS(=O)c1ccc([N+](=O)[O-])cc1[N+](=O)[O-]` (configuration not stated) has a logP of 0.63.
In the case of `COC(=O)CSc1ccc(Cl)cc1[N+](=O)[O-]`, the logP is reported as 2.24.
`COC(=O)CS(=O)(=O)c1ccc([N+](=O)[O-])cc1Cl` showed a logP of 1.45.
`CC(C)OC(=O)CS(=O)c1ccc([N+](=O)[O-])cc1` (configuration not stated) showed a logP of 1.64.
Work on `COC(=O)CSc1ccc([N+](=O)[O-])cc1Cl` yielded a logP of 2.26.
`CC(C)OC(=O)CS(=O)(=O)c1ccc([N+](=O)[O-])cc1Cl` gave a logP of 2.4.
